“Also recorded” adds a separate entry of the source.
Key:
[1] = tested on: pigs; assay: Turnover rate: days to grow pigs from approx. 30 kg to around 118 kg (Example 6); type: in vivo, pig (Danish Landrace)
Description: See also previous examples. Turnover rates of the pigs was defined by the time (days) it takes to grow the pigs from approx. 30 kg to around 118 kg. Thus, turnover time is the time it takes to grow the pigs from approx. 30kg to their optimum slaughter weight. The faster the turnover rate is, the faster the pigs goes through the process and consequently this is the determination factor on how many pigs the farmer can deliver to the slaughterhouse within a year.

[2] = tested on: pigs; assay: Pig feeding trial: growth rate / weight gain (Example 2); type: in vivo, pig (Danish Landrace); details: for Average weight (kg) start: baseline; for Net growth vs. CG group / Net growth vs. CPG group: index; for Net growth vs. CG group: CG = 100; for Net growth vs. CPG group: CPG = 100; for Average weight (kg) Increase: start to week 8
Description: Isosteviol in 97% purity was produced in-house. Isosteviol may be produced by acid-catalysed extraction of Stevia rebaudiana L. Preferably at a pH below 5.5.
The pigs were of the type Danish Landrace Age approx. 90 days, gender equally distributed. They weighted approximately 30 kg when delivered and had been fed with a normal conventional diet for piglets until delivery.
• Standard feed is home-blended by the farmer with the ratio: Wheat 55 w %, Barley 35 w %, Rye 10 w %. • Nutritional profile/100 g: • Nutritional content: 1313 KJ • Fat: 1.8 g • Carbohydrate: 68.9 g • Of which sugar: 1.4 g • Fibres: 15.8 g • Protein: 12.8 g • Supplementary feed: The Supplementary feed was distributed as a “Semi Soja 1920” composition (from DLG), which is a supplementary feed high in protein, carbohydrate, and free amino acids.
The pigs were randomly distributed in the five pigsties when trial started. Food and water were provided ad libitum (see Table 2). The farmer was not aware of which groups received which additional feed, since all feeds were masked to look the same and the CG group received a bag similar to the other groups.
Every other week the pigs were weighed, and their growth were noted. The pigs were attended too equally.
Timeframe: Trial started after delivery of the 30 kg pigs and was planned to end when the pigs weighed around 115-118 kg, the weight at trial-end was however around 120 kg (11 weeks). Total time for production is 72 days.
The food intake by each pig during the trial is described in Table 3.

[3] = tested on: piglets; assay: Larger pig trial: body weight / weight gain (Example 8); type: in vivo, pig (DanBred x Duroc); details: for weight gain versus negative control: week 3-6 and week 1-6 / 42 days trial; for Body weight [kg] Mean SD 0 / Body weight [kg] Median SD 0: baseline
Description: (§1) Trial with 360 barrows and female piglets (DanBred×Duroc; initial BW of about 6.8 kg).
(§2) Age when trial started approx. 7 days and trial ended after 42 days. They weighed approx. 7 kg initially and have been feed as per normal conventional diet for piglets until delivery.
(§3) Basal diets as per standard industry feed: • Prestarter diet for post-weaning piglets: 7.0 to 9.0 kg BW • Starter diet for piglets: 9.0 to 15.0 kg BW • Grower diet for piglets: 15.0 to 30.0-35.0 kg BW.
(§4) Isosteviol >97% was produced in-house. Isosteviol may be produced by acid-catalysed extraction of Stevia rebaudiana L. Preferably at a pH below 5.5.
(§5) • Negative control: No isosteviol • Treatment 1 (IS10): 1% isosteviol mg/kg Bodyweight (BW) • Treatment 2 (IS13): 1.3% isosteviol mg/kg Bodyweight (BW)
(§6) The pigs were fed standard diets supplemented with Isosteviol as outlined above.
(§7) IsoSteviol Premix 0.71% was produced in Vilofoss Premix factory, and included at 0.29/0.37, 0.25/0.33% (by weight) in complete feed to reach 1/1.3 mg IsoSteviol/kg BW (bodyweight).
(§8) The piglets were randomly distributed in 10 pigsties per treatment when trial started. Food and water were provided ad libitum. The farmer was not aware of which groups received which additional feed, since all feeds were masked to look the same and the control group received a bag similar to the other groups.

[4] = tested on: pigs; assay: Meat (muscle) percentage at slaughter, ultrasound Autoform (Example 5); type: in vivo, pig (Danish Landrace); details: FIG. 5-6
Method: See also previous examples.
Meat percentage is measured when the pig is dead. The body is prepared and send to an automatic equipment that measures fat/meat thicknesses based on ultrasound measurements called an Autoform. The equipment is certified by third party and the meat percentages in this study was performed by Tican A/S at the slaughterhouse in Brdrup.
Increased meat (muscle) percentage can also be considered to correspond to an increased muscle/fat ratio.

[5] = tested on: piglets; assay: Larger pig trial: feed conversion ratio (FCR) (Example 8); type: in vivo, pig (DanBred x Duroc); details: for Feed conversion ratio (FCR) versus negative control: 42 days trial
Description: In this regard, the food/feed conversion ratio (FCR) is defined as the ratio between the amount of food eaten by an animal to the output produced by the animal (e.g. amount of meat produced by a pig, amount of milk produced by a cow etc.). Food that is efficiently taken up and converted by the body of the animal to said output obtains a FCR-value lower than a food having a low uptake in the animal. Thus, lower FCR-values are preferred for most applications. In some sectors, feed efficiency, which is the output divided by the input (i.e. the inverse of FCR), is used.
as §1, §2, §3, §4, §5, §6, §7, §8

[6] = tested on: pigs; assay: Stool firmness / diarrhea in pigs (Example 4); type: in vivo, pig (Danish Landrace); details: groups receiving isosteviol (IPG and IG) compared to control groups (CG and CPG)
[7] = tested on: pigs; assay: Overall uptake of feed judged by generated manure and stool analysis (Example 3); type: in vivo, pig (Danish Landrace)
Method: See example 1. Overall uptake of feed was determined by the amount of generated manure by the different groups.

[8] = tested on: broiler chickens; details: cited from earlier work
[9] = IG group (standard feed incl. standard dose of supplementary feed + isosteviol 1 mg/kg/day), 8 pigs
[10] = IPG group (standard feed + additional 10 w % supplementary feed + isosteviol 1 mg/kg/day), 9 pigs
[11] = IG group (isosteviol only, 1 mg/kg/day)
[12] = IPG group (additional 10 w % supplementary feed + isosteviol 1 mg/kg/day)
[13] = Treatment 1 (IS10), 1 mg IsoSteviol/kg BW in feed
[14] = Treatment 2 (IS13), 1.3 mg IsoSteviol/kg BW in feed

C[C@@]12CC[C@@H]3[C@@](CC[C@H]4[C@@]3(C)CCC[C@@]4(C)C(=O)O)(CC1=O)C2 [isosteviol]
increase of yearly turnover in production vs CG group ([1]; IG group, data not shown): 0.1%
increase of yearly turnover rate in production vs CG group ([1]; IPG group, FIG. 8): around 4.8%
growth exceeding that of control group (CG) ([2]; FIG. 1, Isosteviol and protein group (IPG) vs CG at index 100): 4.0%
growth exceeding that of control+protein group (CPG) ([2]; FIG. 2, Isosteviol and protein group (IPG) vs CPG at index 100): 5.8%
growth exceeding that of control group (CG) ([2]; FIG. 3, Isosteviol group (IG) vs CG at index 100): 0.8%
Average weight (kg) week 8 [2, 9]: 99.50 kg
weight gain compared to the Control (CG) group ([2]; IG group, FIG. 3, in words): clear increased weight gain
Average weight (kg) week 8 [2, 10]: 99.78 kg
weight gain compared to the control group (CG) ([2]; IPG group, FIG. 1, in words): clear increased weight gain
weight gain compared to the CPG group ([2]; IPG group, FIG. 2, in words): clear increased weight gain
Average weight (kg) start [2, 9]: 35.00 kg
Average weight (kg) start [2, 10]: 33.11 kg
Net growth vs. CG group [2, 11]: 100.8
Net growth vs. CG group [2, 12]: 104.0
Net growth vs. CPG group [2, 11]: 102.71
Net growth vs. CPG group [2, 12]: 105.80
Average weight (kg) Increase [2, 11]: 64.50 kg
Average weight (kg) Increase [2, 12]: 66.67 kg
weight gain versus negative control ([3]; Treatment 1 (+Isosteviol), FIG. 10, p<0.0023): significant higher weight gain; also recorded: Observed relevant superiority, significant proven
Body weight [kg] Mean SD 10 [3, 13]: 11.568 kg
Body weight [kg] Mean SD 21 [3, 13]: 15.783 kg
Body weight [kg] Mean SD 42 [3, 13]: 32.660 kg
Body weight [kg] Median SD 10 [3, 13]: 11.550 kg
Body weight [kg] Median SD 21 [3, 13]: 15.900 kg
Body weight [kg] Median SD 42 [3, 13]: 33.200 kg
weight gain versus negative control ([3]; Treatment 2 (+Isosteviol), FIG. 11, p<0.0158): significant higher weight gain; also recorded: Observed relevant superiority, significant proven
Body weight [kg] Mean SD 10 [3, 14]: 11.574 kg
Body weight [kg] Mean SD 21 [3, 14]: 15.558 kg
Body weight [kg] Mean SD 42 [3, 14]: 32.293 kg
Body weight [kg] Median SD 10 [3, 14]: 11.500 kg
Body weight [kg] Median SD 21 [3, 14]: 15.600 kg
Body weight [kg] Median SD 42 [3, 14]: 32.000 kg
Body weight [kg] Mean SD 0 [3, 13]: 7.868 kg
Body weight [kg] Median SD 0 [3, 13]: 7.850 kg
Body weight [kg] Mean SD 0 [3, 14]: 7.865 kg
Body weight [kg] Median SD 0 [3, 14]: 7.875 kg
meat (muscle) percentage / muscle/fat ratio ([4]; IG group (isosteviol alone) vs control): very significant increase of the muscle weight; also recorded: increase
meat (muscle) percentage / muscle/fat ratio ([4]; IPG group (isosteviol + supplementary feed) vs control): increased their muscle/fat ratio to a significant degree; also recorded: increase
Feed conversion ratio (FCR) versus negative control ([5]; Treatment 1 (+Isosteviol), FIG. 12): significant decreased feed conversion ratio; also recorded: More than relevant superiority
Feed Conversion Ratio (FCR) Mean SD 42 [5, 13]: 1.399
Feed Conversion Ratio (FCR) Median SD 42 [5, 13]: 1.380
Feed conversion ratio (FCR) versus negative control ([5]; Treatment 2 (+Isosteviol), FIG. 13): significant decreased feed conversion ratio; also recorded: More than relevant superiority
Feed Conversion Ratio (FCR) Mean SD 42 [5, 14]: 1.393
Feed Conversion Ratio (FCR) Median SD 42 [5, 14]: 1.360
stool firmness [6]: more firm; also recorded: much firmer stool
appearance of pigs noted by the farmer (muscle to fat ratio) ([7]; IPG group compared to the control group): leaner and more firmly meaty
overall uptake of the feed (amount of generated manure) ([7]; isosteviol added to feed (IPG) vs CPG group, FIG. 4): higher overall uptake of the feed
decrease of the amount of nutritional ingredients in stool ([7]; preliminary stool analysis, considering the quantity of manure discharged, data not shown): approx. 6%

C=C1C[C@@]23CC[C@H]4[C@@](C)(CCC[C@@]4(C)C(=O)O[C@@H]4O[C@H](CO)[C@@H](O)[C@H](O)[C@H]4O)[C@@H]2CC[C@]1(O[C@@H]1O[C@H](CO)[C@@H](O)[C@H](O)[C@H]1O[C@@H]1O[C@H](CO)[C@@H](O)[C@H](O)[C@H]1O)C3 [stevioside]
effect on the broilers ([8]; fed orally to broiler chickens): no positive effect
abdominal fat content of the chicken ([8]; in a diet for broilers): significantly increased
